Source: patent publication US8309602B2, “Multi-substituted diarylanilines as non-nucleoside HIV reverse transcriptase inhibitors, and preparation and use thereof” (Institute of Pharmacology and Toxicology, priority 2007, dated 2012)
Converted amounts (≈) assume the structure as drawn. Where two headings read alike, the source gives them in different places.

Assays:
Format in all cases: cell-based
[1] = test system: HIV virus (IIIB); test: Assay of anti-HIV activity (H9 cell model), P24 antigen ELISA; conditions: for SI (CC50/EC50): H9 cell line, ratio of cytotoxicity CC50 to activity EC50; for EC50: H9 cell line infected with HIV (IIIB), 50% inhibition of virus replication
Description: Reference document (J. Med. Chem. 2004, 47, 756-760). Lymphocyte H9 was cultured at 37° C. in culture medium 1640 and 5% CO2. The tested compound was initially dissolved in DMSO, and then diluted with culture medium to conventional screening concentration: 100, 20, 4, 0.8 μg/mL. The cultured H9 cells were divided into two parts, wherein one of the parts was infected with HIV virus (IIIB) (m.i.o. 0.1-0.01 infectious Units/cell), which was used for assaying activity. The other part of the cells was not added with viruses but only with culture medium, which was used for assaying toxicity. The two parts of the cells were cultured under completely identical conditions (37° C., 5% CO2) for 4 hours, washed with fresh culture medium for three times, and then were added respectively to the prepared tested samples of different concentrations or to culture medium (the latter was positive infection control or negative drug control), and meanwhile AZT was used as positive drug control. All these cells were cultured at 37° C. in 5% CO2 for 4 days. In the fourth day, the cell membranes of the cells infected by viruses were removed, and the cytosol was tested by P24 antigen ELISA method to assay the activity of the sample, expressed using EC50. EC50 was an effective concentration when virus replication was inhibited by 50%. The part of the cells without viruses added were tested by the method of counting cells to assay the toxicity of the sample, expressed using CC50. CC50 was a concentration when growth cells were killed by 50%.

[2] = test system: HIV-1IIIB virus strains; test: Assay of anti-HIV activity (MT-2 cell model), p24 antigen ELISA; conditions: for EC50: MT-2 cell line infected with HIV-1IIIB, 50% virus inhibition; for SI (CC50/EC50): MT-2 cell line, ratio of cytotoxicity CC50 to activity EC50
Description: Reference documents (Jiang, S., et al. Antimicrob. Agents Chemother. 2004, 48, 4349-4359). In 96 wells culture plate, 50 μl of different concentrations of compound solutions were mixed with HIV-1IIIB virus strains (100 TCID50) in the same volume, incubated at 37° C. for 30 minutes, added with 100 μl TM-2 cell (1×10^5/mL, RPIM 1640 culture medium containing 10% serum), mixed uniformly, and incubated at 37° C. overnight. In the second day, 150 μl supernatant was sucked off and supplemented with fresh culture medium in the same volume, the compound solutions were incubated continuously at 37° C. for 3 days, and the cell pathology effect (CPE) was recorded in the fourth day. Then 100 μl cultured supernatant was sucked up to determine p24 antigen therein with 5% Triton X-100 lytic virus particles by using ELISA method. Briefly, HIVIG (2 μg/ml) was used to encapsulate enzyme standard plate, sealed with 1% fat-free milk, and then added with virus lytic solution, incubated at 37° C. for 60 minutes. After the plate was washed completely, anti-p24 monoclonal antibody-183-12H-5C, goat anti-mouse antibody labeled with biotin and horse radish peroxidase labeled with avidin were added. Then the compounds were developed with TMB, and the light density was tested at 450 nm. The virus inhibition concentration of 50% (EC50) of the compounds was calculated by using CalcuSyn software.

[3] = Cytotoxicity test of compound in MT-2 cells (XTT); conditions: human, MT-2 cell line, uninfected cells
Description: (§1) Reference documents (Jiang, S., et al. Antimicrob. Agents Chemother. 2004, 48, 4349-4359). In 96 wells culture plate, 50 μl of different concentrations of compound solutions were mixed with PBS in the same volume, incubated at 37° C. for 30 minutes, added with 100 μL TM-2 (or H9) cell (1×10^5/mL, RPIM 1640 culture medium containing 10% serum), mixed uniformly, and incubated at 37° C. overnight.

[4] = Cytotoxicity test of compound in H9 cells; conditions: human, H9 cell line, uninfected cells
Description: (§2) Reference document (J. Med. Chem. 2004, 47, 756-760). Lymphocyte H9 was cultured at 37° C. in culture medium 1640 and 5% CO2. […] The cultured H9 cells were divided into two parts, wherein one of the parts was infected with HIV virus (IIIB) (m.i.o. 0.1-0.01 infectious Units/cell), which was used for assaying activity. The other part of the cells was not added with viruses but only with culture medium, which was used for assaying toxicity. The two parts of the cells were cultured under completely identical conditions (37° C., 5% CO2) for 4 hours, washed with fresh culture medium for three times, and then were added respectively to the prepared tested samples of different concentrations or to culture medium (the latter was positive infection control or negative drug control), and meanwhile AZT was used as positive drug control. All these cells were cultured at 37° C. in 5% CO2 for 4 days. […] The part of the cells without viruses added were tested by the method of counting cells to assay the toxicity of the sample, expressed using CC50. […] Reference documents (Jiang, S., et al. Antimicrob. Agents Chemother. 2004, 48, 4349-4359). In 96 wells culture plate, 50 μl of different concentrations of compound solutions were mixed with PBS in the same volume, incubated at 37° C. for 30 minutes, added with 100 μL TM-2 (or H9) cell (1×10^5/mL, RPIM 1640 culture medium containing 10% serum), mixed uniformly, and incubated at 37° C. overnight.

[5] = test system: MT-2 cells; test: Cytotoxicity test of compound in MT-2 cells (XTT); conditions: MT-2 cell line, uninfected cells
Description: as §1

[6] = test system: H9 cells; test: Cytotoxicity test of compound in H9 cells; conditions: H9 cell line, uninfected cells
Description: as §2

[7] = Human immunodeficiency virus 1, read-out: EC50
[8] = Human immunodeficiency virus 1, MT2, read-out: EC50

| SMILES | SI (CC50/EC50) [1] | EC50 [1, 7] | EC50 [2, 8] | SI (CC50/EC50) [2] | CC50 at 4 days [3] | CC50 at 4 days [4] | CC50 at 4 days ([3]; MT-2 cells) | CC50 at 4 days ([4]; H9 lymphocyte cells) | EC50 [1] | EC50 [2] | CC50 [5] | CC50 [6] |
| --- | --- | --- | --- | --- | --- | --- | --- | --- | --- | --- | --- | --- |
| Cc1cc(Br)cc(C)c1Oc1cc(Nc2ccc(C#N)cc2)c([N+](=O)[O-])cc1[N+](=O)[O-] [Compound I-1, N^1-(4′-cyanophenyl)-5-(2′,6′-dimethyl-4′-bromophenoxy)-2,4-dinitroaniline] | >234 | 0.11 µg/mL (≈ 0.228 µM) | 0.14 µg/mL (≈ 0.29 µM) | >714 | > 100 µg/mL | > 25 µg/mL |  |  |  |  |  |  |
| Cc1cc(C#N)cc(C)c1Oc1ccc([N+](=O)[O-])c(Nc2ccc(C#N)cc2)c1 [Compound I-6, N^1-(4′-cyanophenyl)-5-(4′-cyano-2′,6′-dimethylphenoxy)-2-nitroaniline] | >312 | 0.08 µg/mL (≈ 0.208 µM) | 6.63 µg/mL (≈ 17.2 µM) | 8.53 |  |  | 56.5 µg/mL (≈ 147 µM) | > 25 µg/mL |  |  |  |  |
| Cc1cc(C)c(Nc2cc(Nc3ccc(C#N)cc3)c([N+](=O)[O-])cc2[N+](=O)[O-])c(C)c1 [Compound I-3, N^1-(4′-cyanophenyl)-2,4-dinitro-N^5-(2′,4′,6′-trimethylphenyl)-benzene-1,5-diamine] | >455 | 0.055 µg/mL (≈ 0.132 µM) | 0.18 µg/mL (≈ 0.431 µM) | >556 | > 100 µg/mL | > 25 µg/mL |  |  |  |  |  |  |
| Cc1cc(C)c(Oc2cc(Nc3ccc(C#N)cc3)c([N+](=O)[O-])cc2[N+](=O)[O-])c(C)c1 [Compound I-14, N^1-(4′-cyanophenyl)-5-(2′,4′,6′-trimethylphenoxy)-2,4-dinitroaniline] | >174 | 0.144 µg/mL (≈ 0.344 µM) | 0.7 µg/mL (≈ 1.67 µM) | 41.09 | 28.8 µg/mL (≈ 68.7 µM) | > 25 µg/mL |  |  |  |  |  |  |
| Cc1cc(Br)cc(C)c1Oc1cc(Nc2ccc(C#N)cc2)c(N)cc1[N+](=O)[O-] [Compound I-5, 4-(4′-Bromo-2′,6′-dimethylphenoxy)-N^2-(4′-cyanophenyl)-5-nitrobenzene-1,2-diamine] | >1000 | < 0.025 µg/mL | < 0.02 µg/mL | >3054 |  |  | 61.1 µg/mL (≈ 135 µM) | > 25 µg/mL |  |  |  |  |
| Cc1cc(Br)cc(C)c1Oc1cc(Nc2ccc(C#N)cc2)c(N)cc1N [Compound I-8, 5-(4′-Bromo-2′,6′-dimethylphenoxy)-N^1-(4′-cyanophenyl)benzene-1,2,4-triamine] | 239 | 0.068 µg/mL (≈ 0.161 µM) | 0.13 µg/mL (≈ 0.307 µM) | 132 |  |  | 17.2 µg/mL (≈ 40.6 µM) | 16.2 µg/mL (≈ 38.4 µM) |  |  |  |  |
| Cc1cccc(C)c1Oc1ccc([N+](=O)[O-])c(Nc2ccc(C#N)cc2)c1 [Compound I-7, N^1-(4′-cyanophenyl)-5-(2′,6′-dimethylphenoxy)-2-nitroaniline] | >33 | 0.76 µg/mL (≈ 2.11 µM) | 1.18 µg/mL (≈ 3.28 µM) | >85 |  |  | > 100 µg/mL | > 25 µg/mL |  |  |  |  |
| Cc1cc(C#N)cc(C)c1Oc1cc(Nc2ccc(C#N)cc2)c(N)cc1N [Compound I-10, N^1-(4′-cyanophenyl)-5-(4′-Cyano-2′,6′-dimethylphenoxy)benzene-1,2,4-triamine] | >820 | < 0.025 µg/mL | 0.008 µg/mL (≈ 0.0217 µM) | 2425 |  |  | 19.4 µg/mL (≈ 52.5 µM) | 20.5 µg/mL (≈ 55.5 µM) |  |  |  |  |
| Cc1cc(C#N)cc(C)c1Oc1cc(Nc2ccc(C#N)cc2)c(N)cc1[N+](=O)[O-] [Compound I-11, 5-(4′-Cyano-2′,6′-dimethylphenoxy)-N^1-(4′-cyanophenyl)-4-nitrobenzene-1,2-diamine] | >1000 | < 0.025 µg/mL | 0.013 µg/mL (≈ 0.0325 µM) | 4715 |  |  | 61.3 µg/mL (≈ 153 µM) | > 25 µg/mL |  |  |  |  |
| Cc1cccc(C)c1Oc1cc(Nc2ccc(C#N)cc2)c([N+](=O)[O-])cc1[N+](=O)[O-] [Compound I-2, N^1-(4′-cyanophenyl)-5-(2′,6′-dimethylphenoxy)-2,4-dinitroaniline] | >113 | 0.22 µg/mL (≈ 0.544 µM) | 3.71 µg/mL (≈ 9.17 µM) | >27 | > 100 µg/mL | > 25 µg/mL |  |  |  |  |  |  |
| CC(=O)ON(c1cc(Nc2ccc(C#N)cc2)c([N+](=O)[O-])cc1[N+](=O)[O-])c1c(C)cc(C)cc1C [Compound I-4, N^1-(4′-cyanophenyl)-2,4-dinitro-[N^5-acetoxy-N^5-(2′,4′,6′-trimethylphenyl)]benzene-1,5-diamine] | >14.15 |  |  | 23.45 |  |  |  |  | 1.77 µg/mL (≈ 3.72 µM) | 2.61 µg/mL (≈ 5.49 µM) | 61.21 µg/mL (≈ 129 µM) | >25 µg/mL |
| Cc1cc(Br)cc(C)c1Oc1ccc(N)c(Nc2ccc(C#N)cc2)c1 [Compound I-13, 4-(4′-Bromo-2′,6′-dimethylphenoxy)-N^2-(4′-cyanophenyl)benzene-1,2-diamine] | 128 | 0.134 µg/mL (≈ 0.328 µM) | 0.16 µg/mL (≈ 0.392 µM) | 91 |  |  | 14.5 µg/mL (≈ 35.5 µM) | 17.2 µg/mL (≈ 42.1 µM) |  |  |  |  |
